# Patent US11021470B2, “2-substituted quinazoline compounds comprising a substituted heterocyclic group and methods of use thereof” (Araxes Pharma LLC, priority 2015, dated 2021)
# Key:
# [1] = Whole blood stability, dog; format: in vitro ADME; conditions: 37° C.; for half-life at 5 µM: read-out: Whole Blood Stability (T1/2) (converted)
# Protocol: (§1) Representative compounds of the invention were tested for their whole blood stability as follows:
# (§2) Test compounds were prepared as a 500 μM stock solution in DMSO (Adding 10 μl of 10 mM DMSO stock solution to 190 μl of 100% DMSO). Whole blood was thawed on ice. A whole blood plate was prepared by adding 460 μl of the whole blood (different species as needed) to a 96-well in ml deep well plate. The whole blood plate was preincubated at 37° C. for 10 min. 4 μl of compound solution and 396 μl of whole blood was added to the plate and mixed thoroughly. Each sample was aliquoted (30 μl) to the incubation plate (cluster tubes) and quenched at time zero with ice-cold 100% ACN, and the incubation plates were added to the 37° C. incubator (200 μl).
# (§3) The time zero sample was maintained at 4° C. until centrifuged. All other samples were quench at different time points (1, 2, 4 hr), vortexed for 30 seconds and centrifuged at 3500 rpm for 15 min at 4° C. 30 μl of supernatant was added to 170 μl 0.1% FA aqueous solution and the sample was analyzes by LC/MS/MS.
# [2] = Whole blood stability, monkey; format: in vitro ADME; conditions: 37° C.; for half-life at 5 µM: read-out: Whole Blood Stability (T1/2) (converted)
# Protocol: as §1, §2, §3
# [3] = target: T1, KRAS G12C 1-169, his-tagged protein, GDP-loaded (Homo sapiens, UniProt P01116, G12C); experiment: KRAS G12C covalent binding (% modification) by mass spectrometry, ten or three minute incubation; conditions: covalent binding to KRAS G12C after a ten minute incubation period
# T1 construct: KRAS G12C 1-169, his-tagged protein, GDP-loaded
# T1 sequence (P01116 1-169 isoform P01116-2 G12C): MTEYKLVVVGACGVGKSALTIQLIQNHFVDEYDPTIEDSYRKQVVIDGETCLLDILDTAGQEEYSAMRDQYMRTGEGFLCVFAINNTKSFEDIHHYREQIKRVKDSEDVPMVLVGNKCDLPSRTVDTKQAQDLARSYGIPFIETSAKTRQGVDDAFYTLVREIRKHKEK
# How it was run: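 GDP-loaded protein in 20 mM Hepes, 150 mM NaCl, 1 mM MgCl2 was incubated with compound (final 100, 30 or 10 μM; 2% DMSO) at room temperature, then quenched with formic acid. Intact-protein LC-MS with charge-envelope deconvolution gave masses and intensities of modified and unmodified species.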
half-life at 5 µM [1] [h],half-life at 5 µM [2] [h],Whole Blood Stability (T1/2) [2] [h],Whole Blood Stability (T1/2) [1] [h],SMILES,Binding % [3]
0.6,0.2,,,"C=CC(=O)N1CCN(c2nc(OCCN3CC(F)(F)C3)nc3c(F)c(-c4c(O)cccc4F)c(Cl)cc23)CC1 [C, reference compound]",
5.1,6.8,,,"C=CC(=O)N1C[C@H](C)N(c2nc(N3CC(N(C)C)C3)nc3c(F)c(-c4c(O)cccc4F)c(Cl)cc23)C[C@H]1C (atropisomer, axis not shown) [Compound 52, 1-((2R,5S)-4-((S)-6-chloro-2-(3-(dimethylamino)azetidin-1-yl)-8-fluoro-7-(2-fluoro-6-hydroxyphenyl)quinazolin-4-yl)-2,5-dimethylpiperazin-1-yl)prop-2-en-1-one]",+++ (+++ indicates binding activity greater than 90%)
3,,7.8,,"C=CC(=O)N1C[C@H](C)N(c2nc(OCCN3CC(F)(F)C3)nc3c(F)c(-c4c(O)cccc4F)c(Cl)cc23)C[C@H]1C [Compound 38, 1-((2R,5S)-4-(6-chloro-2-(2-(3,3-difluoroazetidin-1-yl)ethoxy)-8-fluoro-7-(2-fluoro-6-hydroxyphenyl)quinazolin-4-yl)-2,5-dimethylpiperazin-1-yl)prop-2-en-1-one]",+++ (+++ indicates binding activity greater than 90%)
1.3,1.2,,,"C=CC(=O)N1CCN(c2nc(OCCN3CC(F)(F)C3)nc3c(F)c(-c4c(O)cccc4F)c(Cl)cc23)C[C@H]1C (atropisomer, axis not shown) [Compound 63, 1-((R)-4-((S)-6-chloro-2-(2-(3,3-difluoroazetidin-1-yl)ethoxy)-8-fluoro-7-(2-fluoro-6-hydroxyphenyl)quinazolin-4-yl)-2-methylpiperazin-1-yl)prop-2-en-1-one]",
1.6,1,,,"C=CC(=O)N1[C@H](C)CN(c2nc(N3CC(N(C)C)C3)nc3c(F)c(-c4c(O)cccc4F)c(Cl)cc23)C[C@@H]1C [Compound 68, 1-((2R,6S)-4-((R)-6-chloro-2-(3-(dimethylamino)azetidin-1-yl)-8-fluoro-7-(2-fluoro-6-hydroxyphenyl)quinazolin-4-yl)-2,6-dimethylpiperazin-1-yl)prop-2-en-1-one]",
0.7,0.1,,,"C=CC(=O)N1CCN(c2nc(N3CC(N(C)C)C3)nc3c(F)c(-c4c(O)cccc4F)c(Cl)cc23)CC1 [B, reference compound]",
3,1.3,,,"C=CC(=O)N1CCN(c2nc(N3CC(N(C)C)C3)nc3c(F)c(-c4c(C)ccc5cn[nH]c45)c(Cl)cc23)C[C@H]1C (atropisomer, axis not shown) [Compound 70, 1-((R)-4-((R)-6-chloro-2-(3-(dimethylamino)azetidin-1-yl)-8-fluoro-7-(6-methyl-1H-indazol-7-yl)quinazolin-4-yl)-2-methylpiperazin-1-yl)prop-2-en-1-one]",
4.8,3.9,,,"C=CC(=O)N1C[C@H](C)N(c2nc(OCCN(CC)CC)nc3c(F)c(-c4c(O)cccc4F)c(Cl)cc23)C[C@H]1C (atropisomer, axis not shown) [Compound 75, 1-((2R,5S)-4-((S)-6-chloro-2-(2-(diethylamino)ethoxy)-8-fluoro-7-(2-fluoro-6-hydroxyphenyl)quinazolin-4-yl)-2,5-dimethylpiperazin-1-yl)prop-2-en-1-one]",
2.3,1.45,,,"C=CC(=O)N1CCN(c2nc(N3CC(N(C)C)C3)nc3c(F)c(-c4c(O)cccc4F)c(Cl)cc23)C[C@H]1C (atropisomer, axis not shown) [Compound 60, 1-((R)-4-((S)-6-chloro-2-(3-(dimethylamino)azetidin-1-yl)-8-fluoro-7-(2-fluoro-6-hydroxyphenyl)quinazolin-4-yl)-2-methylpiperazin-1-yl)prop-2-en-1-one]",
,,3.9,5.95,"C=CC(=O)N1C[C@H](C)N(c2nc(N3CC(N(C)C)C3)nc3c(F)c(-c4c(C)ccc5cn[nH]c45)c(Cl)cc23)C[C@H]1C (atropisomer, axis not shown) [Compound 72, 1-((2R,5S)-4-((R)-6-chloro-2-(3-(dimethylamino)azetidin-1-yl)-8-fluoro-7-(6-methyl-1H-indazol-7-yl)quinazolin-4-yl)-2,5-dimethylpiperazin-1-yl)prop-2-en-1-one]",+++ (+++ indicates binding activity greater than 90%)
